16 compounds from patent US7531565B2, “Imidazolidin-2-one derivatives as selective androgen receptor modulators (SARMS)” (Janssen Pharmaceutica, N.V., priority 2004, dated 2009) can be followed below.

Experiment [1] has as its system castrated male Sprague Dawley rats. Briefly: Ventral prostate and seminal vesicle weight in vivo assay. More on the design: species or system rat; key: A test compound was said to be “active” if the non weight adjusted prostate weight was ≦60 mg or ≧84 mg; they are listed herein as “inactive” as they did not meet the specified criteria defined above. Conditions: immature castrated rats, once daily for five days, usually orally 40 mg/kg, with testosterone propionate 2 mg/kg s.c. As for the experimental part:
Immature (approximately 50 g) castrated male Sprague Dawley rats (Charles River) were treated once daily for five days with test compound (usually given orally at 40 mg/kg in a volume of 0.3 mL, in 30% cyclodextrin or 0.5% methylcellulose vehicle) and with testosterone propionate (given subcutaneously by injection at the nape of the neck at 2 mg/kg, in a volume of 0.1 mL in sesame oil). On the sixth day, the rats were euthanized by asphyxiation in carbon dioxide. Ventral prosatates and seminal vesicles were removed and their wet weights determined. Test compound activity was determined as the percent inhibition of testosterone-enhanced tissue weights, with a vehicle-treated control group set to zero percent and a testosterone alone-treated control group set to 100%.
A test compound was said to be “active” if the non weight adjusted prostate weight was ≦60 mg or ≧84 mg.

The next experiment has as its target T1, androgen receptor (Rattus norvegicus, UniProt P15207).
T1 sequence (P15207 1-902): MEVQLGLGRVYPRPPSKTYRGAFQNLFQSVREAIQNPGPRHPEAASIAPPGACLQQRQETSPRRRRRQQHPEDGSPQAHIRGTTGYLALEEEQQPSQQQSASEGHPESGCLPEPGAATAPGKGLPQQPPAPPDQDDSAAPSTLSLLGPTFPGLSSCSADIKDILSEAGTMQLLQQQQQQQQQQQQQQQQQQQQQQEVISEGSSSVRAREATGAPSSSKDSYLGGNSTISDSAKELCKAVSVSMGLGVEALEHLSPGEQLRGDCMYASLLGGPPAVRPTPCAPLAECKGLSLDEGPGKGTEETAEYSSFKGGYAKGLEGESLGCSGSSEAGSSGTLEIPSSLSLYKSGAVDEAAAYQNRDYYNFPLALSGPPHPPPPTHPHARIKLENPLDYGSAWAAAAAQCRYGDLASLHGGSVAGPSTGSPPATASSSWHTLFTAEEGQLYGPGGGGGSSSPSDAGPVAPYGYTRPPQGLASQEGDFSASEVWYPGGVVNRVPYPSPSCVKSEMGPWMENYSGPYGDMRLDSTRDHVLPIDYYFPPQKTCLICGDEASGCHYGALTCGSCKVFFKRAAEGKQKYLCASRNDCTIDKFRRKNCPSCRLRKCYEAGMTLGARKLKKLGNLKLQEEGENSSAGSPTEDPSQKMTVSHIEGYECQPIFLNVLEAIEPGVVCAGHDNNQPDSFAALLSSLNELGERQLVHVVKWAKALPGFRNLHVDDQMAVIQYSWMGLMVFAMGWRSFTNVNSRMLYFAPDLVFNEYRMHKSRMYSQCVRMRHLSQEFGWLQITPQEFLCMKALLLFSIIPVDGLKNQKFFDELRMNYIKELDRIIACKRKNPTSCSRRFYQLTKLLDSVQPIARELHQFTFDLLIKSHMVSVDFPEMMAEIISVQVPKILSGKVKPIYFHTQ
Briefly: COS-7 whole-cell androgen receptor binding assay, adenovirus transduction. More on the design: expressed in transfected cells. Conditions: for % Inhibition @ 3 μM: 3 μM (3000 nM), COS-7 cells, [3H]R1881, AdEasy+rAR; for inhibition at 3 µM: read-out: % Inhibition @ 3 μM. As for the experimental part:
COS-7 cells were plated in 96-well plates at 20,000 cells per well, in a solution of DMEM/F12 (GIBCO) containing 10% (v/v) charcoal-treated fetal bovine serum (Hyclone) and lacking phenol red. The cells were then incubated overnight at 37° C. in 5% (v/v) humidified CO2.
Test compound solutions were prepared by diluting the test compound in 100% (v/v) DMSO, if necessary. Each dilution yielded a solution which was 625× the final desired test concentration.
Next, 1 mL of DMEM/F12 lacking phenol red was pipetted into each of the wells of a 2-mL 96-well assay block. Then 4 μL of the 625× test compound dilutions were pipetted into each well of the assay block. The wells were carefully mixed by pipette.
In a 15 mL or 50 mL sterile centrifuge tube, a 2.5 nM dilution of tritiated methyl-trienolone in DMEM/F12 lacking phenol red ([^3H]R1881; Perkin-Elmer) was prepared.
In a 15 mL or 50 mL sterile centrifuge tube, a dilution in DMEM/F12 of the adenovirus AdEasy+rAR at a moi of 1:50 per well was prepared.
The medium was removed from the 96-well plates by inversion and the plates dried very briefly, inverted, on a sterile towel. As soon as possible after medium removal, 40 μL of the diluted test compound was added to each well, in duplicate. To each well was then added 40 μL of the 2.5 nM [^3H]R1881 and 20 μL of the diluted adenovirus. The plates were then incubated for 48 hours at 37° C. in 5% (v/v) humidified CO2.
The medium was removed from the above incubated plates by inversion and dried. Each well was then washed with 0.35 mL of 1×PBS. The PBS was then removed from the plates by inversion and the plates dried.
To each well was then added 50 μL of 0.5% (v/v) Triton X-100 (Sigma) in 1×PBS and the plates placed on a rotary shaker for 5 min. The contents of each well were then transferred to an OptiPlate-96 (Packard) scintillation plate. To each well was then added 0.2 mL of Microscint-20 (Packard) and the wells counted on a TopCount (Packard).
Percent inhibition was determined by testing dilutions of the test compound (usually duplicates of 10 μM) in the binding assay. Counts per well were measured and percents of inhibition determined. Androgen receptor binding IC50s were determined by testing serial dilutions of the test compound (usually duplicate ten half-log dilutions starting at 10 μM) in the binding assay. Counts per well were measured and IC50s determined by linear regression.
Representative compounds of the present invention were tested for binding to the androgen receptor according to the procedure described above with results as listed in Table C. Unless otherwise noted, COS binding % inhibition was determined using a concentration of 3000 nM. For compounds tested more than once, each result is listed separately in Table 3 below.

Turning to `CC1(C(=O)Nc2ccc(C(F)(F)F)nc2)CN(c2ccccc2)C(=O)N1` (racemic) [Compound 6j], in experiment [1], the “active / inactive by non weight adjusted prostate weight” value is “inactive”. Further, the “% Inhibition @ 3 μM” value at androgen receptor was 18%.
With `CC1(C(=O)Nc2ccccc2)CN(c2ccccc2)C(=O)N1` (racemic) [Compound 6b], the “active / inactive by non weight adjusted prostate weight” value in experiment [1] was “inactive”. Besides, the “% Inhibition @ 3 μM” value on androgen receptor was 22%.
Turning to `CC1(C(=O)O)CN(c2ccc(F)cc2)C(=O)N1` (centres unmarked) [Compound 5a, 1-(4-Fluoro-phenyl)-4-methyl-2-oxo-imidazolidine-4-carboxylic acid], in experiment [1], the “active / inactive by non weight adjusted prostate weight” value was “inactive”. In addition, the inhibition at 3 µM at androgen receptor was -14%.
The corresponding values for `CC1(C(=O)Nc2ccc(C#N)c(C(F)(F)F)c2)CN(c2ccc(F)cc2)C(=O)N1` (centres unmarked) [Compound 6a, 1-(4-Fluoro-phenyl)-4-methyl-2-oxo-imidazolidine-4-carboxylic acid (4-cyano-3-trifluoromethyl-phenyl)-amide] are “active” and 43%.
Regarding `COC(=O)C1(C)CN(c2ccccc2)C(=O)N1` (racemic) [Compound 4b], the “active / inactive by non weight adjusted prostate weight” value in experiment [1] is “active”. Further, the “% Inhibition @ 3 μM” value on androgen receptor was 16%.
Regarding `CC1(C(=O)Nc2ccc(C#N)c(C(F)(F)F)c2)CN(c2ccccc2)C(=O)N1` (racemic) [Compound 6d], the “active / inactive by non weight adjusted prostate weight” value in experiment [1] was “inactive”. At androgen receptor, the “% Inhibition @ 3 μM” value turned out to be 40%.
The corresponding values for `CC1(C(=O)Nc2cc(C(F)(F)F)cc(C(F)(F)F)c2)CN(c2ccc(F)cc2)C(=O)N1` (racemic) [Compound 6h] are “active” and 76%.
Consider `CC1(C(=O)Nc2ccc([N+](=O)[O-])c(C(F)(F)F)c2)CN(c2ccccc2)C(=O)N1` (racemic) [Compound 6e], for which, in experiment [1], the “active / inactive by non weight adjusted prostate weight” value was “inactive”. Also, the “% Inhibition @ 3 μM” value at androgen receptor worked out at 37%.
The corresponding values for `CC1(C(=O)Nc2cccc(C(F)(F)F)c2)CN(c2ccc(F)cc2)C(=O)N1` (racemic) [Compound 6g] are “inactive” and −40%.
The corresponding values for `COC(=O)C1(C)CN(c2ccc(Cl)c(C(F)(F)F)c2)C(=O)N1` (racemic) [Compound 4d] are “inactive” and −30%.
For `COC(=O)C1(C)CN(c2ccc(OC)cc2)C(=O)N1` (racemic) [Compound 4c], in experiment [1], the “active / inactive by non weight adjusted prostate weight” value was “inactive”. Besides, at androgen receptor, the “% Inhibition @ 3 μM” value is given as −8%.
The corresponding values for `CC1(C(=O)O)CN(c2ccc(Cl)c(C(F)(F)F)c2)C(=O)N1` (racemic) [Compound 5d] are “inactive” and −26%.
Consider `COC(=O)C1(C)CN(c2ccc(C#N)c(C(F)(F)F)c2)C(=O)N1` (racemic) [Compound 4e], for which the “active / inactive by non weight adjusted prostate weight” value in experiment [1] is on record as “active”. Besides, at androgen receptor, the “% Inhibition @ 3 μM” value was 27%.
`COc1ccc(N2CC(C)(C(=O)Nc3ccc(C#N)c(C(F)(F)F)c3)NC2=O)cc1` (racemic) [Compound 6c]: in experiment [1], the “active / inactive by non weight adjusted prostate weight” value is “inactive”. Besides, the “% Inhibition @ 3 μM” value at androgen receptor is recorded as 24%.
As to `CC1(C(=O)O)CN(c2ccccc2)C(=O)N1` (racemic) [Compound 5b], the “active / inactive by non weight adjusted prostate weight” value in experiment [1] is “inactive”. Further, on androgen receptor, the “% Inhibition @ 3 μM” value stood at 15%.
As to `COc1ccc(N2CC(C)(C(=O)O)NC2=O)cc1` (racemic) [Compound 5c], the “active / inactive by non weight adjusted prostate weight” value in experiment [1] was “inactive”. Moreover, at androgen receptor, the “% Inhibition @ 3 μM” value is −11%.

In general, inhibition refers to the drop in the measured response relative to a control, in per cent.
